Values quoted from earlier work as cited in patent US20210395200A1, “SYNTHETIC PROCESSES FOR THE PRODUCTION OF 1-((3S,4R)-4-(2,6-DIFLUORO-4-METHOXYPHENYL)-2-OXOPYRROLIDIN-3-YL)-3-PHENYLUREA” (BRISTOL-MYERS SQUIBB COMPANY, priority 2018, published 2021).

Molecular target: T1, FPR2 (Homo sapiens, UniProt P25090)
T1 sequence (P25090 1-351): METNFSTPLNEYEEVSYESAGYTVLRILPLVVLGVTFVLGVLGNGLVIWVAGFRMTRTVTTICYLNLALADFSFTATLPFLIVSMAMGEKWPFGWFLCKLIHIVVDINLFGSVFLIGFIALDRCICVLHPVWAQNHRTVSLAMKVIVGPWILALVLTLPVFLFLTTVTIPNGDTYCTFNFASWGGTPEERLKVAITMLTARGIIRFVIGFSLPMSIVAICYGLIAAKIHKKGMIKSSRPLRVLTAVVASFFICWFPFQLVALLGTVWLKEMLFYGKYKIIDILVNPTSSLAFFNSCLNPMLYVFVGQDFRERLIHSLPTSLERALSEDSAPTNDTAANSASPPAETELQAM
Conditions: background statement referring to U.S. Pat. No. 9,822,069

## COc1cc(F)c([C@@H]2CNC(=O)[C@H]2NC(=O)Nc2ccccc2)c(F)c1 [Compound 1, 1-((3S,4R)-4-(2,6-difluoro-4-methoxyphenyl)-2-oxopyrrolidin-3-yl)-3-phenylurea]
  FPR2 agonist activity: robust FPR2 agonist activity
